Experimental data taken from BindingDB's records for doi:10.1016/j.bmcl.2007.12.050 (Neurogen, 2008).

Experiment: Antagonist activity at CRF1 receptor expressed in mouse AtT20 cells assessed as inhibition of sauvagine-stimulated cAMP accumulation

SMILES: CCCN(CCC)c1c(C)nc(-c2c(C)cc(C)cc2OC)c2ccccc12 [1-(2-methoxy-4,6-dimethylphenyl)-3-methyl-N,N-dipropylisoquinolin-4-amine]
- Ki: 12 nM
